Our source for the inhibition values is patent US11147792B2, “Inhibitors of microbially induced amyloid” (Axial Therapeutics, Inc, priority 2017, dated 2021).

Broadly, the inhibition is the change of the read-out against control, counted positive when it falls.

The target of assay [1] is T1, α-synuclein seeded by E. coli CsgA (Homo sapiens, UniProt P37840).
T1 construct: made in house; host or cells: E. coli NEB 3016 slyD::kan (CsgA, pET11d); E. coli (α-synuclein)
Kind of assay: In vitro Thioflavin T assay of CsgA-seeded α-synuclein aggregation. In kind it is biochemical. As to conditions: compounds at 50 μM; 2 μM CsgA, 50 μM α-synuclein; ThT fluorescence at 40 hours; read-out: Inhibition of Aggregation CsgA-seeded αSyn. How it is done: In Vitro Thioflavin T Assay to Determine the Effects of Compounds on CsgA-Seeded α-Synuclein Aggregation.
To induce over-expression of CsgA, 0.5 mM IPTG was added to cultures with an optical density at 600 nm (OD600) of 0.8-1, and induced cells were cultured at 37° C. for 1 hour prior to harvest via centrifugation. […] Buffers with imidazole were freshly prepared prior to the protein purification. Purified CsgA was passed through a 30 kDa molecular weight cut-off filter and through a desalting column. All steps of the CsgA purification in the absence of guanidine hydrochloride were conducted in rapid succession with as little delay as possible. […] The ammonium sulfate pellet was washed with an equal volume of 100 mM ammonium acetate in ethanol, pelleted via centrifugation, washed twice with ethanol, dried overnight, resuspended in 10 mM Tris pH 7.4, and passed through a 50 kDa cut-off column. The assay was conducted in 96-well black microplates with a single glass 2 mm bead per well, 40 μM ThioflavinT, 1% DMSO, 2 μM CsgA, 50 μM α-synuclein, 100 mM sodium chloride, 9.3 mM potassium phosphate pH 7.3, and compounds at 50 μM. […] The effect of compounds on CsgA-seeded α-synuclein aggregation in the assay was determined with data from 40 hours, following the plateau of the fluorescent signal in the untreated (no compound) control wells containing CsgA and α-synuclein. Fluorescence values for each compound with CsgA and α-synuclein were first adjusted by subtracting the average fluorescence of the compound in the absence of CsgA and α-synuclein.

In the next assay the target is T2, E. coli CsgA (Escherichia coli, UniProt P28307).
T2 construct: made in house; host or cells: E. coli NEB 3016 slyD::kan, pET11d
Kind of assay: In vitro ThioflavinT assay of CsgA aggregation. In kind it is biochemical. As to conditions: CsgA at 20 μM, ThT fluorescence at 18 hours. The procedure:
In Vitro ThioflavinT Assay to Determine Effects of Compounds on CsgA Aggregation.
To assess the effects of compounds on aggregation of E. coli CsgA, a cell-free assay was performed using purified CsgA and Thioflavin T. In the assay, histidine-tagged CsgA was over-expressed in E. coli NEB 3016 slyD::kan cells harboring a pET11d vector containing csgA with the sequence for 6 histidine residues added to the C-terminus and without the Sec signal (amino acid 1-22) sequence. To induce over-expression of CsgA, 0.5 mM isopropyl β-D-1-thiogalactopyranoside (“IPTG”) was added to cultures with an optical density at 600 nm (OD600) of 0.8-1, and induced cells were cultured at 37° C. for 1 hour prior to harvest via centrifugation. Cells were lysed under denaturing conditions with 8 M guanidine hydrochloride in 50 mM potassium phosphate buffer pH 7.3, and CsgA was purified via immobilized-metal affinity chromatography by batch purification with Nickel-NTA agarose and a combination of low pressure and gravity flow through a disposable polypropylene column, including washes under low pressure applied manually via application of a syringe plunger to the column with 50 mM potassium phosphate buffer pH 7.3 followed by 12.5 mM imidazole in 50 mM potassium phosphate buffer pH 7.3, and elution by gravity flow with 125 mM imidazole in 50 mM potassium phosphate buffer pH 7.3. Buffers with imidazole were freshly prepared prior to the protein purification. Purified CsgA was passed through a 30 kDa molecular weight cut-off filter and passed through a desalting column. All steps of the CsgA purification in the absence of guanidine hydrochloride were conducted in rapid succession with as little delay as possible. The assay was conducted in 96-well black microplates with 40 μM ThioflavinT, 1% DMSO, CsgA at 20 μM, and compounds at 20 μM. Plates were incubated at 25° C. in a Tecan Nano F200 plate reader with excitation at 438 nm using a 439 nm filter with a bandwidth of 8 nm, and emission at 495 nm with a 490 nm filter with a bandwidth of 10 nm. During the assay, plates were shaken initially for 5 seconds and subsequently for 3 seconds prior to fluorescent readings. Readings were performed every 20 minutes for up to 24 hours. The effect of compounds on CsgA aggregation in the assay was determined with data from 18 hours, following the plateau of the fluorescent signal in the untreated (no compound) control wells containing CsgA. Fluorescence values for each compound with CsgA were first adjusted by subtracting the average fluorescence of the compound in the absence of CsgA. These adjusted values were normalized by dividing them by the average fluorescence in the no-compound (i.e., untreated) control wells containing CsgA […], and the average normalized fluorescence with the compound was expressed as a percentage of the average fluorescence observed in untreated controls.

Read-outs that look alike come from different tables or passages of the source.

T2 sequence (P28307 23-151): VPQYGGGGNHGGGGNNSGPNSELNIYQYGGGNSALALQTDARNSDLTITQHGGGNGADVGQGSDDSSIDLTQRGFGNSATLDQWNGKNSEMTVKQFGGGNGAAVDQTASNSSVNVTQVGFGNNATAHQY

`O=C(O[C@@H]1Cc2c(O)cc(O)cc2O[C@@H]1c1cc(O)c(O)c(O)c1)c1cc(O)c(O)c(O)c1` [EGCG, epigallocatechin gallate]: the inhibition at 50 µM in assay [1] stood at 77%. In addition, the inhibition at 20 µM on E. coli CsgA (read-out: Inhibition of Aggregation CsgA (compound activity range), compounds at 20 μM) is 30 to 60%; at E. coli CsgA (read-out: Inhibition of Aggregation CsgA, compounds at 20 μM), 56%.
